# Measurements published in patent publication US20240245670A1, “DOSING REGIMEN AND PHARMACEUTICAL COMBINATION COMPRISING 3-(1-OXOISOINDOLIN-2-YL)PIPERIDINE-2,6-DIONE DERIVATIVES” (Novartis AG, priority 2018, published 2024).
# Assays:
# [1] = biological target: T1, IKZF2 (Oryctolagus cuniculus, UniProt A0A5F9CPW0); assay: IKZF2 degradation in primary PBMCs in vitro (FIG. 3); type: cell-based; conditions: primary rabbit PBMCs; concentrations up to 10 μM
# T1 construct: endogenous in cells; host or cells: primary rabbit PBMCs
# T1 sequence (A0A5F9CPW0 1-526): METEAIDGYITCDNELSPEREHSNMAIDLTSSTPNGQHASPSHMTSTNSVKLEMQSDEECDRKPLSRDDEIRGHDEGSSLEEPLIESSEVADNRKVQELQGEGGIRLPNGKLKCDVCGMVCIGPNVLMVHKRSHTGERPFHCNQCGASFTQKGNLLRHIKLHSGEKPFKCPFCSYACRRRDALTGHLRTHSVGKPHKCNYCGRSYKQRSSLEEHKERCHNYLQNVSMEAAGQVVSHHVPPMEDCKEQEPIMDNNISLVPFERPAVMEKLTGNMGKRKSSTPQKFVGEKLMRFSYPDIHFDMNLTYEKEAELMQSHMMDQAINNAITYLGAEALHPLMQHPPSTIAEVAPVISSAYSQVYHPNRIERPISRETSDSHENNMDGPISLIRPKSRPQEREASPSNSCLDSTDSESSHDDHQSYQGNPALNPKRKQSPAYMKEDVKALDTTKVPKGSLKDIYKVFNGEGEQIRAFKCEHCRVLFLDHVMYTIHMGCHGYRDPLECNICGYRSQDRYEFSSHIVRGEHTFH
# Protocol: FIG. 3. is a bar graph showing the degradation of IKZF2 in primary PBMCs obtained from rabbit, dog, pig, cynomolgus monkey and human, and in primary splenocytes of mouse and rat and treated with Compound I-57.
# I-57 mediated degradation of IKZF2 was assessed in primary PBMCs obtained from rabbit, dog, pig, cynomolgus monkey, and human, and in primary splenocytes of mouse and rat. […] Species-specificity due to species specific alteration CRBN primary structure have previously been described with other compounds known to interact with the CRBN ubiquitin ligase complex to elicit protein specific degradation (Krönke et al, 2015).
# [2] = test system: primary human Tregs; assay: Suppressive potency of Treg cells expanded in vitro in the presence of compound (FIG. 2C); type: cell-based
# Source text: FIG. 2C is a bar graph showing the suppressive potency of Treg cells expanded in the presence of Compound I-57.
# Although the specific transcriptional targets of IKZF2 remain to be defined, IKZF2 binds to and represses transcription from the IL-2 promoter region (Baine 2013). […] Finally, an in vitro assay recapitulating hallmarks of T cell dysfunction/exhaustion, by sequential TCR stimulation of isolated primary human T cells, was used to test the hypothesis that […] would rescue the exhausted phenotype and enhance Teff cell activity. […] In addition to IKZF1, other known cereblon substrates including translation termination factor G1 to S phase transition 1 (GSPT1) are not degraded by I-57 (FIG. 1).
# [3] = PK after single oral dose in cynomolgus monkey (FIG. 4, FIG. 5, Table 13); type: in vivo; conditions: for AUC24 h (unbound) / AUC24 h/Dose (unbound) / Cmax (unbound) / Cmax/Dose (unbound): cynomolgus monkey, unbound exposure, n = 3, mean ± SD
# Protocol: FIG. 4 is a graph showing the PK/PD relationship in the cynomolgus monkey after a single oral of 0.01, 0.1 or 1 mg/kg of Compound I-57.
# FIG. 5. is a graph showing plasma concentration in the cynomolgus monkey of Compound I-57 and IKZF2 expression (as determined by flow cytometry) in FOXP3+ T cells from PBMCs after a single oral of 0.01, 0.1 or 1 mg/kg of Compound I-57.
# The PK/PD relationship of I-57 was examined in cynomolgus monkeys after a single oral dose of 0.01, 0.1 or 1 mg/kg. I-57 plasma concentration and IKZF2 expression (as determined by flow cytometry) in FOXP3+ T cells from PBMCs were determined (FIG. 4 and FIG. 5).
# [4] = test system: anti-KLH IG; assay: Serum anti-KLH IG levels in immunized cynomolgus monkeys; type: in vivo, cynomolgus monkey; conditions: daily oral 0.1 and 3 mg/kg
# Protocol: The PK/PD relationship of I-57 was further examined in cynomolgus monkeys after repeated daily oral doses of 0.1 and 3 mg/kg. In this study, a cohort of animals were initially immunized with an antigen-adjuvant mixture (KLH/Squalene). The experiment was designed to assess the effect of I-57 exposure, and the resulting IKZF2 degradation, on immune response during immunization to test the hypothesis that IKZF2 degradation would result in increased proliferation of stimulated T-cells. In the experiment, daily I-57 oral treatment was initiated 5 days after immunization. An immunization booster dose was administered on day 15. I-57 plasma concentration and IKZF2 expression (as determined by flow cytometry) in FOXP3+ T cells from PBMCs were determined (FIG. 9A and FIG. 9B).
# In order to measure the impact of I-57 treatment on the immune response following immunization, serum anti-KLH IG levels were measured longitudinally, and levels of T cell activation were measured in PBMCs by flow cytometry. […] In contrast, the proportion of proliferative peripheral T cells (denoted by Ki67 staining) was increased in the highest dose group (3 mg/kg) in the recall response phase, compared to immunization alone.
# [5] = In vivo non-clinical PK profile, i.v. and p.o., all species tested (mouse, rat, dog, cynomolgus monkey)
# Protocol: (§1) The in vivo non-clinical PK profile of I-57 was investigated in mouse, rat, dog and cynomolgus monkey using I-57 free base. […] After p.o. administration, the absorption of I-57 was rapid with peak blood concentration (Tmax) occurring between 1 and 4 hours. […] In high dose PK and toxicology studies with I-57 the exposures in mouse, rat and monkey increased with dose.
# [6] = In vivo non-clinical PK / high dose PK; conditions: mouse; between 3 mg/kg and 100 mg/kg
# Protocol: as §1
# The binding to plasma protein of I-57 in vitro was moderate in all species, with an observed difference between rodents (73% in mouse, 76% in rat) and non-rodents (52% in dog and monkey, 54% in human). Blood-to-plasma ratios were in the range of 0.7-1.8 (human 1.1-1.3). […] Based on results with non-radiolabeled I-57 in the dog, a significant amount of unchanged I-57 was renally eliminated (˜20% of dose).
# [7] = Preclinical safety observations; type: in vivo
# Source text: The inclusion/exclusion criteria, dose modification guidelines and safety assessments in this FIH trial account for both the disease indications and preclinical safety profile of I-57 and PDR001. Of note are the provisions put in place for the risk of autoimmune events for both PDR001 and potentially I-57.
# [8] = biological target: IKZF2 (Homo sapiens, UniProt Q96SW2+Q9UKS7); assay: IKZF2 protein in total tumor-infiltrating lymphocytes by immunohistochemistry, hPBMC AdT model (FIG. 8); type: in vivo; design: endogenous in cells; host or cells: primary human PBMCs / primary Treg cells; conditions: 24 h post the 14th daily dose
# IKZF2 (Homo sapiens, UniProt Q96SW2+Q9UKS7), sequence (Q9UKS7 whole entry): as the sequence (A0A5F9CPW0 1-526) above, with D68E, V234M, M266I, S373A, N423H, V449A counted along it
# IKZF2 (Homo sapiens, UniProt Q96SW2+Q9UKS7), sequence (Q96SW2 whole entry): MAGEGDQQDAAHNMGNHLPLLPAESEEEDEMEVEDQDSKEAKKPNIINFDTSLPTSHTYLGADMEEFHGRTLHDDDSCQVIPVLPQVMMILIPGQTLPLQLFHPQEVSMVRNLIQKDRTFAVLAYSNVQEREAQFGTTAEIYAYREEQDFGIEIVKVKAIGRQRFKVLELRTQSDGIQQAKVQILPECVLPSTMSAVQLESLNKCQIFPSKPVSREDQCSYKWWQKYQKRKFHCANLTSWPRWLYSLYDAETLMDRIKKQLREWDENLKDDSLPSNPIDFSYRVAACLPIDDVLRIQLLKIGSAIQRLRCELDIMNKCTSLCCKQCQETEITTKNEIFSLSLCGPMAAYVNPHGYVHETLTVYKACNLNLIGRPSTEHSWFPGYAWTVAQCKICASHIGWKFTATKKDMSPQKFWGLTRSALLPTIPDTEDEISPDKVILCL
# IKZF2 (Homo sapiens, UniProt Q96SW2+Q9UKS7), sequence (Q16531 whole entry partner): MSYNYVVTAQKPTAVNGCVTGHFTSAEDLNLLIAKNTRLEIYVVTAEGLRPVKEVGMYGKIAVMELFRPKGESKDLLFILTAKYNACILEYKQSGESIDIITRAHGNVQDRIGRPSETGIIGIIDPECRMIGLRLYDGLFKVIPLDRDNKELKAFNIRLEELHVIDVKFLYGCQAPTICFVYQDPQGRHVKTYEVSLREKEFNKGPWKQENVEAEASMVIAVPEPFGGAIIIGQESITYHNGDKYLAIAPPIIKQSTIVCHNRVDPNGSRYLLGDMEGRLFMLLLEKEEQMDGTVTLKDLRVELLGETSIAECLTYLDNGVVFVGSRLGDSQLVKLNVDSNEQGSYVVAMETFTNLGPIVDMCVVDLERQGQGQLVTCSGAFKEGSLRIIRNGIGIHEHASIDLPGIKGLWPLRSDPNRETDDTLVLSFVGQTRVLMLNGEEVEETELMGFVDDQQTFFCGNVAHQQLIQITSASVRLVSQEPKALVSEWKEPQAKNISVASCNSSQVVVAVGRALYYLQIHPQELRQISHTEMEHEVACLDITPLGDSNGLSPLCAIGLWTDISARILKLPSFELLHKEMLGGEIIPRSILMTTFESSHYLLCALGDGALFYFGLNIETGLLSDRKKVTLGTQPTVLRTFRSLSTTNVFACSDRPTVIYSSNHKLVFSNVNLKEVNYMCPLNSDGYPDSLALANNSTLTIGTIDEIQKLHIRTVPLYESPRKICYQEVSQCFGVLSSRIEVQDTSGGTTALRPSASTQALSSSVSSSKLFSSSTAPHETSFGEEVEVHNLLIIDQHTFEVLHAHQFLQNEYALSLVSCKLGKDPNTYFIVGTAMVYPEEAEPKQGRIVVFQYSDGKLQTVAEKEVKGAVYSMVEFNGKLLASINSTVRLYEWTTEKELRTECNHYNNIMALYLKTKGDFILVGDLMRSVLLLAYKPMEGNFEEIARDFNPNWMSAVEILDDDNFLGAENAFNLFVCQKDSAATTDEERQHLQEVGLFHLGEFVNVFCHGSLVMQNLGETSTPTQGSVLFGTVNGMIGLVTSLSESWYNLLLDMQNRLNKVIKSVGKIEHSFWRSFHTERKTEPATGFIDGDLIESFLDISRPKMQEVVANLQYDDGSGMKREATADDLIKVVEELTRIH
# Protocol: FIG. 8A is a bar graph showing the change in the IKZF2 protein levels in total tumor-infiltrating lymphocytes by immunohistochemistry (IHC) at 24 h post the 14th daily dose of 1, 3 or 30 mg/kg Compound I-57.
# IKZF2 protein levels in total tumor-infiltrating lymphocytes were also assessed by immunohistochemistry (IHC) at 24 h post the 14th dose of 1, 3 or 30 mg/kg I-57. […] Overall, IKZF2 degradation assessed by IHC was generally consistent with our findings in Tregs by flow cytometry, though dose dependency was less apparent. Together, the data support the finding of profound I-57-mediated IKZF2 degradation in tumor-infiltrating lymphocytes (FIG. 8A and FIG. 8B).
smiles,measurement,setting,value
"O=C1CCC(N2Cc3cc(C4CCN(Cc5ccccc5)CC4)ccc3C2=O)C(=O)N1 (centres unmarked) [Compound I-57, 3-(5-(1-benzylpiperidin-4-yl)-1-oxoisoindolin-2-yl)piperidine-2,6-dione]",degradation of IKZF2,[1],Degradation was observed
same,proportion of IKZF2-expressing cells,[2],remained unchanged
same,AUC24 h (unbound),[3]; single oral dose 0.01 mg/kg,14.1 ± 4.72 ng·h/mL
same,AUC24 h/Dose (unbound),[3]; single oral dose 0.01 mg/kg,1410 ± 472 (ng · h/mL)/(mg/kg)
same,Cmax (unbound),[3]; single oral dose 0.01 mg/kg,2.11 ± 0.69 ng/mL
same,Cmax/Dose (unbound),[3]; single oral dose 0.01 mg/kg,211 ± 69.1 (ng/mL)/(mg/kg)
same,AUC24 h (unbound),[3]; single oral dose 0.1 mg/kg,102 ± 13.2 ng·h/mL
same,AUC24 h/Dose (unbound),[3]; single oral dose 0.1 mg/kg,1020 ± 136 (ng · h/mL)/(mg/kg)
same,Cmax (unbound),[3]; single oral dose 0.1 mg/kg,13.4 ± 2.77 ng/mL
same,Cmax/Dose (unbound),[3]; single oral dose 0.1 mg/kg,134 ± 27.7 (ng/mL)/(mg/kg)
same,AUC24 h (unbound),[3]; single oral dose 1 mg/kg,610 ± 236 ng·h/mL
same,AUC24 h/Dose (unbound),[3]; single oral dose 1 mg/kg,610 ± 236 (ng · h/mL)/(mg/kg)
same,Cmax (unbound),[3]; single oral dose 1 mg/kg,102 ± 45.3 ng/mL
same,Cmax/Dose (unbound),[3]; single oral dose 1 mg/kg,102 ± 45.3 (ng/mL)/(mg/kg)
same,dose proportionality of observed exposures,"[3]; single oral dose of 0.01, 0.1 or 1 mg/kg",slightly less than dose proportional
same,anti-IgG titers elicited by the immunization,[4],not further enhanced
same,terminal half-life (T1/2),"[5]; i.v. administration, all species tested",moderate
same,absorption,[5]; p.o. administration,rapid
same,increase in AUC with dose,[6],roughly dose proportional
same,preclinical observation (ECG),[7],QTc prolongation
same,preclinical observation (urine),[7],hematuria and proteinuria
same,IKZF2 degradation in total tumor-infiltrating lymphocytes (IHC),[8]; 30 mg/kg,approximately 85%
same,IKZF2 levels in total tumor-infiltrating lymphocytes (IHC),"[8]; 1, 3 and 30 mg/kg",Robust reduction in IKZF2 levels
